≈ marks a conversion by molar mass, not a printed value.
Assays:
[1] = test system: intracranial U251MG gliomas; experiment: Survival, intracranial glioma, intratumoral Ad and systemic 5-FC; format: in vivo, SCID mice; settings: no virus/5-FC
Protocol: (§1) U87MG and D54MG cells (5×10^5) were stereotactically injected into the right frontal cortex of SCID mice. Tumors were established for 5 days before intratumoral injection of AdCMVCD (10^8 or 10^9 pfu/mouse). Mice were then treated IP with 5-FC (500 mg/kg bid) on days 2-9 post infection and monitored for survival. Kaplan-Meier survival curves and median and 20% survival values were calculated by standard methods.
Additional experiments were performed on intracranial tumors derived from all three glioma models. […] Similar results were obtained with SCID mice bearing intracranial U87MG gliomas (AdE1ACD/5-FC 84 days, AdE1ACD/saline 49 days, no virus/5-FC 57 days, p<0.01; Table II and Table 12).

[2] = test system: intracranial D54MG tumors; experiment: Intracranial survival study; format: in vivo, athymic nude mice; settings: for median survival time: FIG. 5
Protocol: D54MG human glioma cells (0.5×10^6 cells/mouse) were injected into the right frontal cortex of athymic nude mice (10 mice/group). Six days after tumor implantation (Day 0), a single dose of saline or 3.2×10^7 TCID50 AdCD-D314A was injected i.t. Mice then received 5 Gy fractions of radiation treatment on Days 1, 3, and 7 and 5-FC (500 mg/kg i.p. twice daily on Days 0-4, and 7-11) or saline and were subsequently monitored for survival.
D54MG human glioma cells (0.5×10^6 cells/mouse) were injected into the right frontal cortex of athymic nude mice (10 mice/group). Five days after tumor implantation, a single dose of PBS or 3.2×10^7 TCID50 AdbCD-D314A was injected i.t. on Day 5 Mice then received radiation treatment on Days 6, 9 and 13 at 2 or 5 Gy and 5-FC (500 mg/kg i.p. q2d×5/week for 3 weeks) and were subsequently monitored for survival.
D54MG tumors were established intracranially in athymic nude mice as described. Briefly, mice were anesthetized by i.p. administration of ketamine (20 mg/ml) and xylazine (0.3 mg/ml) in saline at 0.07 ml/10 g of body weight. A midline scalp incision was made, and a 0.5-mm burr hole was drilled 1.5-2.0 mm to the right of midline and 1 mm anterior to the coronal suture. D54MG cells were injected stereotactically at 0.5×10^6 cells (1×10^8/ml), using a 250 μl Hamilton syringe with a prepared 30 gauge needle mounted in a Stoelting stereotaxic apparatus. A plastic sleeve surrounding the needle allowed reproducible injections of tumor cells, saline or Ad to a depth of 2.5 mm. The needles were left in place for 2 min to minimize reflux of the tumor cells along the needle track. The scalp wounds were closed with Tissu-Mend glue to avoid scatter dose from metallic wound clips during radiation treatment. The mice were placed on a heating pad in sterile microisolator polycarbonate cages and allowed to awaken from anesthesia. Tumors were allowed to grow for 6 days before the start of treatment (Day 0). Animals were randomly divided into groups receiving different treatments: 3.2×10^7 TCID50 AdbCD-D314A in 10 μl saline; AdbCD-D314A in combination with radiation; AdbCD-D314A plus 5-FC; AdbCD-D314A plus 5-FC in combination with radiation, intratumoral saline followed by intraperitoneal 5-FU and intratumoral saline plus 5-FC and radiation. On the day after AdbCD-D314A injection, mice were treated i.p. with either saline or 5-FC twice daily at 500 mg/kg on Days 0 to 4, and 7 to 11 and monitored daily for survival. Radiation therapy consisted of 15 Gy ^60Co delivered in 5 Gy fractions to the whole brain, on Days 1, 3 and 7. Irradiated mice were immobilized in individual Lucite chambers with their heads positioned in an 8×32 cm collimated field. Animals were shielded with 3 cm of lead placed over the chamber, extending from behind the ears to the tail.

[3] = test system: Intracranial D54MG Human Gliomas; experiment: Survival, intracranial glioma, intratumoral Ad and systemic 5-FC; format: in vivo, SCID mice; settings: Table 7; Saline (no virus) + 5-FC
Protocol: as §1

[4] = test system: human pancreatic cancer cells; settings: Uninfected cells; 5-FC at 764 μg/ml
Protocol: To measure the cytotoxicity of 5-FU and 5-FC, glioma cells or pancreatic cancer cells were plated into 96-well tissue culture plates at 5×10^3 cells/well, and allowed to adhere overnight. Next day, serial dilutions of 5-FU or 5-FC were added directly to cells. Cells were incubated for 5 days, and relative cell density was determined using a crystal violet staining assay. Cell culture medium was removed and surviving cells were then fixed and stained with 2% (w/v) crystal violet (Sigma-Aldrich) in 70% ethanol for 3 h at room temperature. The plates were washed extensively, air-dried and optical density was measured at 570 nm using a V Max plate reader (Molecular Devices Corporation, Sunnyvale Calif.). Fractional cell survival at each drug concentration was calculated as the ratio of absorbance at 570 nm of cells incubated in the presence versus absence of drug, corrected for background absorbance of media alone. Fractional cell survival data were plotted against drug concentration and IC50 values extrapolated by piecewise linear regression as the concentration of drug producing a 50% reduction in corrected absorbance.

[5] = test system: Neuro-2a murine neuroblastoma cells; experiment: HSV replication in vitro, plaque titration on Vero cells; format: cell-based; settings: 50 μM 5-FU in growth medium; first evident at 48 h post-infection
Protocol: M012 replication was compared to R3659 replication over time in murine Neuro-2a tumor cells at both high (5.0) and low (0.1) MOI. Infected cells were grown in either growth medium alone or growth medium containing 5-FC (500 μM) or 5-FU (50 μM) by determining viral titers at 12, 24, 48, 72, and 96 h post-infection in the presence or absence of 500 μM 5-FC or 50 μM 5-FU. Virus recovery at the different time points was determined by titering on Vero cells. Experiments were performed in duplicate. Inhibition was most significant at high MOI, with P=0.002.
To establish replication competence of M012 in murine tumor cell lines in vitro, Neuro-2a murine neuroblastoma cells were infected with either the parent Dg134.5 HSV, R3659, or M012 using a low (0.1) or high (5.0) MOI. To determine if high concentrations of 5-FC might interfere with HSV replication, cells were incubated in the presence of either 500 μM 5-FC or 50 μM 5-FU, or media alone and infected cells were harvested at 12, 24, 48, 72, and 96 h post-infection. Total PFU recovered at each time point was determined by plaque titration on Vero cells (FIG. 9). At both MOI, M012 replication in DMEM alone was similar to its parent virus, R3659. […] The addition of 5-FC to the growth medium following infection inhibited M012 replication, but had no effect on R3659 replication at either MOI. […]

BXPC-3 = experiment: 5-FU toxicity, MTS assay; format: cell-based; settings: Homo sapiens, 120 h, 5 days
Protocol: (§2) Tumor cells (5×10^4) were plated in 96 well plates and allowed to adhere overnight. Cells were then incubated continuously in the presence of increasing concentrations of 5-FU (0-200 μg/ml) and assayed for toxicity using an MTS assay (Promega, Madison Wis.) after 5-days. ICx values were calculated as previously described. U251MG glioma cells were as sensitive to 5-FU as LS174T and WiDR colon carcinoma cells, while D54MG, U87MG and U118MG glioma cells and AsPC-1 pancreatic carcinoma cells were 3-fold less sensitive (Table 2).

D54MG = experiment: 5-FU toxicity, MTS assay; format: cell-based; settings: Homo sapiens, 120 h, 5 days
Protocol: as §2

Nc1nc(=O)[nH]cc1F [5-FC, 5-fluorocytosine]
median survival [1]: 23 days | median survival time ([2]; 5-FC): 17 days | median survival time ([2]; 5-FC plus radiation): 30 days | survival SF50 ([2]; FIG. 19, mock-infected, 5-FC): 23 days | survival ([2]; preliminary study, mock-infected, 5-FC): 13 days | Survival 20% [3]: 30 | Survival Median [3]: 29 | cytotoxicity [4]: no detectable cytotoxicity

O=c1[nH]cc(F)c(=O)[nH]1 [5-FU, 5-fluorouracil]
reduction in replication of M012 or R3659 [5]: 1.0-2.0 log | IC20 (BXPC-3): 0.01 µg/mL (≈ 0.0769 µM) | IC50 (BXPC-3): 0.04 µg/mL (≈ 0.308 µM) | IC80 (BXPC-3): 0.69 µg/mL (≈ 5.3 µM) | IC20 (D54MG): 0.33 µg/mL (≈ 2.54 µM) | IC50 (D54MG): 1.1 µg/mL (≈ 8.46 µM) | IC80 (D54MG): 8.53 µg/mL (≈ 65.6 µM)
